Assay results: patent US10994016B2, “Graphene oxide mediated cellular delivery of gadolinium-labeled molecules” (Northwestern University, priority 2015, dated 2021)
Where “and” joins values, the source holds several entries; their conditions need not be identical. Equal values may be shown once.

Assays:
[1] = Octanol-water partition coefficients; format: physicochemical; conditions: errors show SEM; Gd in each layer by ICP-MS
Method: Approximately 1 mg of each compound was dissolved in 1 mL of a 1:1 mixture of water/1-octanol. After shaking the sample tube vigorously for 30 s, the tube was placed on a rotator for gentle mixing over 6 h. The tube was then removed from the rotator and allowed to sit for 12 h to ensure complete separation of the aqueous and organic phases. […] Once separation was complete, 10 μL was removed from each layer to determine the concentration of Gd by ICP-MS. The partition coefficient was calculated from the following equation: log10P=log10(Co/Cw), where log10 P is the logarithm of the partition coefficient, Co is the concentration of Gd in the 1-octanol layer, and Cw is the concentration of Gd in the water layer.

HeLa cells = assay: Cellular delivery studies with and without GO co-incubation, HeLa; format: cell-based; conditions: for Gd content (fmol/cell): 24 h, replicate values; for Gd content (fmol/cell), Outliers: values removed as outliers (Chauvenet's criterion, * experimenter judgment)
Method: ICP-MS Samples were prepared in 15-mL conical tubes by adding ACS reagent grade nitric acid (70%), followed by incubation at 70° C. overnight to allow for complete sample digestion. The effectiveness of this digestion protocol was previously validated for GO. After incubation, a multi-element internal standard (containing Bi, Ho, In, Li, Sc, Tb, and Y, Inorganic Ventures, Christiansburg, Va.) and milli-Q water (18.2 MΩ·cm) were added to produce a final sample of 3% (v/v) nitric acid and 5 ng/mL internal standard.
ICP-MS was performed on a computer-controlled (Plasmalab software) Thermo X series II ICP-MS (Thermo Fisher Scientific, Waltham, Mass., USA) operating in standard mode equipped with an ESI SC-2 autosampler (Omaha, Nebr., USA). Each sample was acquired using 1 survey run (10 sweeps) and 3 main (peak jumping) runs (100 sweeps). The isotopes selected for analysis were Gd with In and Ho isotopes selected as internal standards for data interpolation. Instrument performance is optimized daily through an autotune followed by verification via a performance report (passing manufacturer specifications). Instrument calibration was accomplished by preparing individual-element Gd standards (Inorganic Ventures, Christiansburg, Va., USA) using concentrations of 0.78125, 1.5625, 3.125, 6.25, 12.50, 25.00, 50.00, 100.0, and 200.0 ng/mL containing 3.0% nitric acid (v/v) and 5.0 ng/mL of multi-element internal standard.
Dulbecco's modified phosphate buffered saline (DPBS), media, and dissociation reagents were purchased from Life Technologies (Carlsbad, Calif.). CorningBrand® cell culture consumables (flasks, plates, etc.) and sera were purchased from VWR Scientific (Radnor, Pa.). HeLa cells (ATCC® CCL-2™) and KB cells (ATCC® CCL-17™) were purchased from the American Type Culture Collection (ATCC, Manassas, Va.) and cultured in phenol red-free minimum essential media (MEM) supplemented with 10% fetal bovine serum (FBS). Prior to all experiments, cells were plated and allowed to incubate for 24 hours before dosing. Cells were harvested with 0.25% TrypLE for 5 minutes at 37° C. in a 5.0% CO2 incubator. For sterilization, all Gd(III)-labeled molecules were filtered with 0.2 μm sterile filters prior to concentration determination and storage at 4° C. GO was used as prepared without further sterilization. […] Cells were grown in a humidified incubator operating at 37° C. and 5.0% CO2.
Cell counting was conducted using a Guava EasyCyte Mini Personal Cell Analyzer (EMD Millipore, Billerica, Mass.). After cell harvesting, an aliquot (50 μL) of the cell suspensions was mixed with Guava ViaCount reagent (150 μL) and allowed to stain at room temperature for at least 5 minutes. The dilution factor of 4 was determined based upon optimum machine performance (20-150 cells/μL). After vortexing for 10 sec, stained cells were counted using a Guava EasyCyte Mini Personal Cell Analyzer (PCA) using the ViaCount software module. For each sample, 1000 events were acquired. Gating of live/dead and cell/debris classifications were performed manually by the operator.
Cellular delivery studies were performed with HeLa and KB cells. HeLa and KB were plated at a cell density of approximately 25,000 and 50,000 cells per well, respectively, in a 24-well plate as counted by a hemocytometer. Stock solutions of 1-14 (1 mM), 150 nm GO (100 μg/mL), and 1500 nm GO (100 μg/mL) were prepared using sterile Milli-Q water. Prior to dosing, 80 μL ([…]) of each GO (150 nm and 1500 nm) and 80 μL (80 nmol) of each Gd(III)-labeled molecule (1-14) were mixed and allowed to adsorb for at least 15 minutes. 150 μL Gd(III)-GO solutions were added to 250 μL media to give a final concentration of 188 μM Gd and 18.8 μg/mL GO. Cells were incubated with the mixture of Gd(III)-labeled molecules and GO for […]. To harvest, cells were rinsed in-plate three times with 500 μL PBS and trypsinized using 100 μL 0.25% TrypLE. […]

[2] = +150 nm GO co-incubation, 188 μM Gd(III), 18.8 μg/mL GO
[3] = +1500 nm GO co-incubation, 188 μM Gd(III), 18.8 μg/mL GO
[4] = molecule alone, without GO, 188 μM Gd(III), 24-well plate

| Compound | Water-Octanol LogP [1] | Delivery enhancement without adsorption time (HeLa cells; 1500 nm GO, 188 μM Gd(III), 18.8 μg/mL GO) | Gd content (fmol/cell) (HeLa cells; [2]) | Gd content (fmol/cell) (HeLa cells; [3]) | Gd content (fmol/cell) (HeLa cells; [4]) | Gd content (fmol/cell), Outliers (HeLa cells; molecule alone, without GO) | Gd content (fmol/cell), Outliers (HeLa cells; +150 nm GO) | Gd content (fmol/cell), Outliers (HeLa cells; +1500 nm GO) |
| --- | --- | --- | --- | --- | --- | --- | --- | --- |
| NCCCCCCN1CCN(CC(=O)[O-])CCN(CC(=O)[O-])CCN(CC(=O)[O-])CC1.[Gd+3] [Molecule 9] | −3.98 ± 0.07 | same result | 28.63 fmol/cell and 32.09 fmol/cell and 29.78 fmol/cell | 11.67 fmol/cell and 20.36 fmol/cell and 14.83 fmol/cell | 6.86 fmol/cell and 7.54 fmol/cell and 4.78 fmol/cell and 7.33 fmol/cell and 8.77 fmol/cell and 6.65 fmol/cell and 7.40 fmol/cell | 13.02* fmol/cell and 14.46* fmol/cell and 18.05 fmol/cell and 24.04 fmol/cell | – | – |
| CCCCc1cn(CC(O)CN2CCN(CC(=O)[O-])CCN(CC(=O)[O-])CCN(CC(=O)[O-])CC2)nn1.[Gd+3] (stereo not shown) [Molecule 1] | −2.18 ± 0.02 | – | 0.63 fmol/cell (2×) and 0.44 fmol/cell and 0.58 fmol/cell and 0.57 fmol/cell (2×) and 0.76 fmol/cell | 0.59 fmol/cell and 0.58 fmol/cell and 0.39 fmol/cell and 0.77 fmol/cell and 0.86 fmol/cell and 0.76 fmol/cell and 0.64 fmol/cell | 0.62 fmol/cell and 0.67 fmol/cell and 0.36 fmol/cell and 0.63 fmol/cell and 0.40 fmol/cell | – | 1.11 fmol/cell and 1.24 fmol/cell | 1.18 fmol/cell and 1.45 fmol/cell |
| O=C([O-])CN1CCNCCN(CC(=O)[O-])CCN(CC(=O)[O-])CC1.[Gd+3] [Molecule 7] | −3.71 ± 0.02 | – | 0.53 fmol/cell and 0.39 fmol/cell (2×) and 0.42 fmol/cell and 0.44 fmol/cell (2×) and 1.09 fmol/cell and 0.73 fmol/cell | 0.63 fmol/cell and 0.55 fmol/cell and 0.68 fmol/cell and 0.50 fmol/cell and 1.05 fmol/cell and 1.36 fmol/cell | 0.47 fmol/cell and 0.39 fmol/cell and 0.51 fmol/cell and 0.46 fmol/cell and 0.75 fmol/cell and 0.83 fmol/cell | 4.93* fmol/cell and 4.31* fmol/cell | – | 6.54 fmol/cell and 4.00 fmol/cell |
| CC(O)CN1CCN(CC(=O)[O-])CCN(CC(=O)[O-])CCN(CC(=O)[O-])CC1.[Gd+3] (stereo not shown) [Molecule 13] | −3.59 ± 0.16 | – | 1.09 fmol/cell and 1.47 fmol/cell and 1.02 fmol/cell | 1.36 fmol/cell and 1.84 fmol/cell and 0.82 fmol/cell and 1.59 fmol/cell and 1.47 fmol/cell | 0.51 fmol/cell and 0.42 fmol/cell and 0.61 fmol/cell | – | – | 0.53* fmol/cell and 0.55* fmol/cell |
| C[N+](C)(C)CCCc1cn(CC(O)CN2CCN(CC(=O)[O-])CCN(CC(=O)[O-])CCN(CC(=O)[O-])CC2)nn1.[Gd+3] (stereo not shown) [Molecule 5] | −4.33 ± 0.46 | – | 0.37 fmol/cell and 0.29 fmol/cell and 0.42 fmol/cell and 0.43 fmol/cell | 0.42 fmol/cell and 0.36 fmol/cell and 0.32 fmol/cell | 0.52 fmol/cell and 0.29 fmol/cell and 0.25 fmol/cell and 0.35 fmol/cell and 0.37 fmol/cell | – | 2.73 fmol/cell | – |
| NCCCN1CCN(CC(=O)[O-])CCN(CC(=O)[O-])CCN(CC(=O)[O-])CC1.[Gd+3] [Molecule 8] | −3.86 ± 0.01 | – | 13.40 fmol/cell and 20.22 fmol/cell and 14.84 fmol/cell | 7.61 fmol/cell and 7.56 fmol/cell and 6.31 fmol/cell | 0.68 fmol/cell and 1.78 fmol/cell and 1.87 fmol/cell and 1.16 fmol/cell and 0.94 fmol/cell and 1.30 fmol/cell and 1.48 fmol/cell | – | – | – |
| O=C([O-])CN1CCN(CC(=O)[O-])CCN(CC(O)Cn2cc(CCCOP(=O)(O)O)nn2)CCN(CC(=O)[O-])CC1.[Gd+3] (stereo not shown) [Molecule 3] | −4.05 ± 0.17 | – | 1.84 fmol/cell and 1.36 fmol/cell and 1.29 fmol/cell | 1.61 fmol/cell and 1.64 fmol/cell and 1.41 fmol/cell | 0.74 fmol/cell and 0.90 fmol/cell and 0.65 fmol/cell | – | – | – |
| NCCCCCCCCCCCCN1CCN(CC(=O)[O-])CCN(CC(=O)[O-])CCN(CC(=O)[O-])CC1.[Gd+3] [Molecule 10] | −1.63 ± 0.04 | – | 45.53 fmol/cell and 50.10 fmol/cell and 48.08 fmol/cell | 14.47 fmol/cell and 26.93 fmol/cell and 18.26 fmol/cell | 3.88 fmol/cell and 5.08 fmol/cell and 4.54 fmol/cell | – | – | – |
| O=C([O-])CN1CCN(CC(=O)[O-])CCN(CC(O)Cn2cc(CCCO)nn2)CCN(CC(=O)[O-])CC1.[Gd+3] (stereo not shown) [Molecule 2] | −3.98 ± 0.06 | – | 0.84 fmol/cell and 0.81 fmol/cell and 0.90 fmol/cell | 0.59 fmol/cell and 0.88 fmol/cell and 0.70 fmol/cell | 0.30 fmol/cell and 0.38 fmol/cell and 0.36 fmol/cell | – | – | – |
| O=C([O-])CN1CCN(CC(=O)[O-])CCN(CC(O)Cn2cc(CCCc3ccccc3)nn2)CCN(CC(=O)[O-])CC1.[Gd+3] (stereo not shown) [Molecule 6] | −1.26 ± 0.08 | – | 1.13 fmol/cell and 0.53 fmol/cell and 0.68 fmol/cell and 0.73 fmol/cell (2×) and 0.47 fmol/cell and 0.87 fmol/cell | 1.29 fmol/cell and 1.24 fmol/cell and 0.67 fmol/cell and 0.64 fmol/cell | 0.78 fmol/cell and 0.72 fmol/cell and 0.40 fmol/cell and 0.47 fmol/cell and 0.58 fmol/cell | – | 3.26 fmol/cell | 4.12 fmol/cell |
| O=C([O-])CN1CCN(CC(=O)[O-])CCN(CC(=O)[O-])CCN(CC(=O)[O-])CC1.[Gd+3] [Molecule 14] | −3.62 ± 0.23 | – | 0.35 fmol/cell and 0.26 fmol/cell and 0.21 fmol/cell | 0.34 fmol/cell and 0.21 fmol/cell and 0.18 fmol/cell and 0.31 fmol/cell | 0.22 fmol/cell and 0.31 fmol/cell and 0.20 fmol/cell | – | – | 4.32 fmol/cell |
